Test results from patent US20240158495A1, “Antibody Agents Directed Against Lymphocyte Activation Gene-3 (LAG-3) and Uses Thereof” (Tesaro, Inc., priority 2017, published 2024).
pIC50: −log10 of the molar value.

Tests used:
[1] = tested on: PARP activity; conditions: various cell lines, hydrogen peroxide, cited from earlier work
[2] = tested on: primary human CD4+ T cells; test: Mixed lymphocyte reaction (MLR) assay, IL-2 secretion; type: cell-based; conditions: 48 hours, antibody alone, FIG. 4
Procedure: This example describes the ability of an exemplary anti-LAG-3 antibody agent to activate primary human T cells in vitro. […] In this MLR assay, primary human CD4+ T cells were mixed with monocyte-derived dendritic cells from a different donor. In these studies, dendritic cells and allogeneic CD4+ T cells were incubated in the presence of an exemplary anti-LAG-3 antibody agent or isotype control for 48 hours, and activation of T cells was determined by measuring the level of interleukin-2 (IL-2) secretion.

[3] = target: T1, LAG-3/MHC-II binding (Homo sapiens, UniProt P18627); test: LAG-3 reporter gene assay (LAG-3 Jurkat cells / MHC class II Raji cells, NFAT readout); type: cell-based; conditions: FIG. 3C
T1 construct: expressed in transfected cells; host or cells: Jurkat cells (NFAT reporter)
T1 sequence (P18627 23-525): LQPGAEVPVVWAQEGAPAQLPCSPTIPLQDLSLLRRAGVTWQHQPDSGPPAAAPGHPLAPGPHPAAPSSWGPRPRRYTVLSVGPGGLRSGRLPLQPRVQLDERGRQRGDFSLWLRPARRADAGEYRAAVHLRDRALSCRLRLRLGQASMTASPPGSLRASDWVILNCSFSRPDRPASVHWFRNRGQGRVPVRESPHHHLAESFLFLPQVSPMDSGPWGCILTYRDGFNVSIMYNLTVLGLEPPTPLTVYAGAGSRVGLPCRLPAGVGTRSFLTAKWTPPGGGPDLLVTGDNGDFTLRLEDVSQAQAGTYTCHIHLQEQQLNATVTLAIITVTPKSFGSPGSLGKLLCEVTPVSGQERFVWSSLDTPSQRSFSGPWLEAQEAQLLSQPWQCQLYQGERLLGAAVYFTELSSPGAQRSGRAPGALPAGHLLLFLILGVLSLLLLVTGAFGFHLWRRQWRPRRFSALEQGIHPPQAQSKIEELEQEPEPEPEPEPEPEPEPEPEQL
Excerpt: Specifically, this example uses Raji cells, which express high levels of endogenous MHC class II.

[4] = target: T2, LAG-3 (Homo sapiens, UniProt P18627); test: Receptor occupancy on patient T cells (direct binding assay, flow cytometry); type: in vivo; conditions: patients, early time points, FIG. 10C
T2 construct: PBMCs were isolated from fresh whole blood samples from patients; endogenous in cells; host or cells: T cells in PBMCs from patient whole blood
T2 sequence (P18627 23-525): T1 sequence (P18627 23-525)
Excerpt: The saturation binding aliquot was run in parallel as a control to assess the range of the assay.

[5] = target: T3, Human LAG-3 (Homo sapiens, UniProt P18627); test: SPR binding to recombinant soluble human LAG-3
T3 construct: either recombinant soluble or cell-surface-expressed human and cynomolgus monkey (cyno) LAG-3
T3 sequence (P18627 23-450 limits assumed): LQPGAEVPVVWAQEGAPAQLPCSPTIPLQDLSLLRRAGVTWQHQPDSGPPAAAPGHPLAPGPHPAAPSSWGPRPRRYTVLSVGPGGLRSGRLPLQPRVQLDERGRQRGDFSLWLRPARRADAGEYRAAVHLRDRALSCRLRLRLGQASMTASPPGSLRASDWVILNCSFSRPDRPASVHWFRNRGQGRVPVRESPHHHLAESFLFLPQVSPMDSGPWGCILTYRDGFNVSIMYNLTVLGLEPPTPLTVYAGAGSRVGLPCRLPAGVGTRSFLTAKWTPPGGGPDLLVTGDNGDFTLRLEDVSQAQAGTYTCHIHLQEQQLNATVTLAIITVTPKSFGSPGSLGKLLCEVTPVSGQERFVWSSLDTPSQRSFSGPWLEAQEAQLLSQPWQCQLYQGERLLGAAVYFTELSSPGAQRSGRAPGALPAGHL

[6] = tested on: human PBMCs; test: IL-2 release from SEB-stimulated human PBMCs; type: cell-based; conditions: 100 ng/mL SEB for 3 days, 5 donors, FIG. 5
Procedure: Specifically human PBMCs (from 5 donors) were stimulated with 100 ng/mL SEB for 3 days and then IL-2 induction was assessed.

[7] = tested on: Cyno LAG-3; test: SPR binding to recombinant soluble cyno LAG-3; set-up: species or system cynomolgus monkey

Compound: NC(=O)c1cccc2cn(-c3ccc([C@@H]4CCCNC4)cc3)nc12 [Niraparib, (3S)-3-[4-{7-(aminocarbonyl)-2H-indazol-2-yl}phenyl]piperidine]
- IC90 ([1]; read-out: inhibitory concentration at 90% of control (IC90)): ~50 nM
- pIC50 [1]: ~8.40

Compound: TSR-033: anti-LAG-3 antibody agent comprising a heavy chain of SEQ ID NO: 21 and a light chain of SEQ ID NO: 22
- IL-2 production [2]: dose-dependently increased IL-2 production
- disruption of binding of LAG-3 on Jurkat cells to MHC Class II expressing Raji cells [3]: potent antagonist
- receptor occupancy (RO) ([4]; 80 mg dose): approximately 50%
- receptor occupancy (RO) ([4]; 240 mg dose): approaches saturation
- Kassoc [5]: 1.3 × 10^5 (ms)^−1
- Kdissoc [5]: 0.00013 s⁻¹
- IL-2 production [6]: dose-dependently increased IL-2 production
- Kassoc [7]: 1.1 × 10^5 (ms)^−1
- Kdissoc [7]: 0.00026 s⁻¹
